Laboratory results published in patent publication US9169254B2, “Spiroimidazolone derivative” (Chugai Seiyaku Kabushiki Kaisha, priority 2009, dated 2015).

Biological target: T1, human PTH1 receptor (Homo sapiens, UniProt Q03431)
T1 sequence (Q03431 27-593): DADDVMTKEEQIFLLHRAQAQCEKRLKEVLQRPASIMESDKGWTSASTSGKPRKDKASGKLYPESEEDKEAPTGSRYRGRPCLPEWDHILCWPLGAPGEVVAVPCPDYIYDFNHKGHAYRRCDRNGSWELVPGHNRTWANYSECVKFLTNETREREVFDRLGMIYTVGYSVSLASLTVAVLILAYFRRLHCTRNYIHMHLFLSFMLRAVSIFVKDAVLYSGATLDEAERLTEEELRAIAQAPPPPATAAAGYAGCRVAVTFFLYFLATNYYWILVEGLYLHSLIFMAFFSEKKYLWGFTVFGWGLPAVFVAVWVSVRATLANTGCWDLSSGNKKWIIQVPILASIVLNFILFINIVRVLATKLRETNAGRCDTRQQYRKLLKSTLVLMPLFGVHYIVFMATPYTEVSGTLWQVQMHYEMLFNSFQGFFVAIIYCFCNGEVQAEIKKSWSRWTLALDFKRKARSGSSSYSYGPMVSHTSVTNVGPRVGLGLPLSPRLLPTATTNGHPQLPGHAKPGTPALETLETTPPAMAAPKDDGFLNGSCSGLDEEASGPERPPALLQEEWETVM
Test: In vitro cAMP signal activity in HKRK-B7 cells (LLC-PK1 cells overexpressing the human PTH1 receptor)
Type: cell-based
Details: HKRK-B7 cells; compound at 1×10^−3 M; […]; 0.1 µM

| Compound | cAMP production activity (%) |
| --- | --- |
| COC(=O)N(C)c1ccc(CCS(=O)(=O)N2CCC3(CC2)N=C(c2cccc(OC(F)(F)F)c2)NC3=O)c(C)c1 [Compound 468, Methyl-(3-methyl-4-{2-[4-oxo-2-(3-trifluoromethoxy-phenyl)-1,3,8-triaza-spiro[4.5]dec-1-ene-8-sulfonyl]-ethyl}-phenyl)-carbamic acid methyl ester] | 90% |

Same assay, conditions: HKRK-B7 cells; compound at 1×10^−3 M; cAMP produced as percentage of that produced by hPTH(1-34) at 100 nM

| cAMP production activity (%) | Compound |
| --- | --- |
| 74% | COc1cc(NC(C)=O)ccc1CCS(=O)(=O)N1CCC2(CC1)N=C(C1CCC(C)CC1)NC2=O (stereo not drawn) [Compound 655, N-(3-Methoxy-4-{2-[2-(4-methyl-cyclohexyl)-4-oxo-1,3,8-triaza-spiro[4.5]dec-1-ene-8-sulfonyl]-ethyl}-phenyl)-acetamide] |
| 54% | Cl.[2H]C([2H])([2H])Nc1cc(C)c(/C=C/S(=O)(=O)N2CCC3(CC2)N=C(c2ccc(F)c(C(F)(F)F)c2)NC3=O)c(C)c1 [Compound 1288, 8-[(E)-2-(2,6-dimethyl-4-[1,1,1-^2H3]methylamino-phenyl)-ethenesulfonyl]-2-(4-fluoro-3-trifluoromethyl-phenyl)-1,3,8-triaza-spiro[4.5]dec-1-en-4-one hydrochloride] |
| 28% | O=C1NC(CCc2ccccc2)=NC12CCN(S(=O)(=O)c1cccc(Cl)c1)CC2 [Compound 29, 8-(3-chloro-benzenesulfonyl)-2-phenethyl-1,3,8-triaza-spiro[4.5]dec-1-en-4-one] |
| 137% | CCCCCc1ccc(C2=NC3(CCN(S(=O)(=O)/C=C/c4c(C)cc(N(C)C(N)=O)cc4C)CC3)C(=O)N2)cc1 [Compound 1021, 1-(3,5-dimethyl-4-{(E)-2-[4-oxo-2-(4-pentyl-phenyl)-1,3,8-triaza-spiro[4.5]dec-1-ene-8-sulfonyl]-vinyl}-phenyl)-1-methyl-urea] |
| 84% | Cc1cc(C(=O)N(C)C)c(F)cc1CCS(=O)(=O)N1CCC2(CC1)N=C(c1cccc(C(F)(F)F)c1)NC2=O [Compound 418, 2-Fluoro-5,N,N-trimethyl-4-{2-[4-oxo-2-(3-trifluoromethyl-phenyl)-1,3,8-triaza-spiro[4.5]dec-1-ene-8-sulfonyl]-ethyl}-benzamide] |
| 70% | C=CCCOc1cc(C2=NC3(CCN(S(=O)(=O)CCc4ccc(C(=O)N(C)CCOCC=C)cc4C)CC3)C(=O)N2)cc(C(F)(F)F)c1 [Compound 1419, N-(2-Allyloxy-ethyl)-4-{2-[2-(3-but-3-enyloxy-5-trifluoromethyl-phenyl)-4-oxo-1,3,8-triaza-spiro[4.5]dec-1-ene-8-sulfonyl]-ethyl}-3,N-dimethyl-benzamide] |
| 59% | Cc1cc(N2C(=O)CNC2=O)cc(C)c1CCS(=O)(=O)N1CCC2(CC1)N=C(C1CCC(C(C)C)CC1)NC2=O (stereo not drawn) [Compound 884, 3-(4-{2-[2-(4-isopropyl-cyclohexyl)-4-oxo-1,3,8-triaza-spiro[4.5]dec-1-ene-8-sulfonyl]-ethyl}-3,5-dimethyl-phenyl)-imidazolidine-2,4-dione] |
| 38% | Cc1cc(C(=O)N2CC(F)(F)C(F)(F)C2)ccc1CCS(=O)(=O)N1CCC2(CC1)N=C(c1cccc(C(F)(F)F)c1)NC2=O [Compound 368, 8-{2-[2-methyl-4-(3,3,4,4-tetrafluoro-pyrrolidine-1-carbonyl)-phenyl]-ethanesulfonyl}-2-(3-trifluoromethyl-phenyl)-1,3,8-triaza-spiro[4.5]dec-1-en-4-one] |
| 75% | Cc1cc(C(=O)N(C)C)ccc1CCS(=O)(=O)N1CCC2(CC1)N=C(c1ccc(C(F)(F)F)cc1)NC2=O [Compound 75, 3,N,N-trimethyl-4-{2-[4-oxo-2-(4-trifluoromethyl-phenyl)-1,3,8-triaza-spiro[4.5]dec-1-ene-8-sulfonyl]-ethyl}-benzamide] |
| 70% | CC(=O)Nc1ccc(CCS(=O)(=O)N2CCC3(CC2)N=C(C2CCC(c4ccc(Cl)cc4)CC2)NC3=O)c(C)c1 (stereo not drawn) [Compound 920, N-[4-(2-{2-[4-(4-Chloro-phenyl)-cyclohexyl]-4-oxo-1,3,8-triaza-spiro[4.5]dec-1-ene-8-sulfonyl}-ethyl)-3-methyl-phenyl]-acetamide] |
| 92% | Cc1cc(C(=O)NN)cc(C)c1CCS(=O)(=O)N1CCC2(CC1)N=C(C1CCC(CCC(F)(F)F)CC1)NC2=O (stereo not drawn) [Compound 1385, 3,5-dimethyl-4-(2-{4-oxo-2-[4-(3,3,3-trifluoro-propyl)-cyclohexyl]-1,3,8-triaza-spiro[4.5]dec-1-ene-8-sulfonyl}-ethyl)-benzoic acid hydrazide] |
| 82% | Cc1cc(C(=O)N(C)C)ccc1CCS(=O)(=O)N1CCC2(CC1)N=C(c1cccc(Cl)c1C)NC2=O [Compound 133, 4-{2-[2-(3-chloro-2-methyl-phenyl)-4-oxo-1,3,8-triaza-spiro[4.5]dec-1-ene-8-sulfonyl]-ethyl}-3,N,N-trimethyl-benzamide] |
| 27% | Cc1cc(N(C2CCNCC2)S(C)(=O)=O)cc(C)c1/C=C/S(=O)(=O)N1CCC2(CC1)N=C(c1cccc(OC(F)(F)F)c1)NC2=O [Compound 689, N-(3,5-Dimethyl-4-{(E)-2-[4-oxo-2-(3-trifluoromethoxy-phenyl)-1,3,8-triaza-spiro[4.5]dec-1-ene-8-sulfonyl]-vinyl}-phenyl)-N-piperidin-4-yl-methanesulfonamide] |
| 73% | Cc1cc(N(C)C(=O)CO)ccc1CCS(=O)(=O)N1CCC2(CC1)N=C(c1cccc(OC(F)(F)F)c1)NC2=O [Compound 300, 2-hydroxy-N-methyl-N-(3-methyl-4-{2-[4-oxo-2-(3-trifluoromethoxy-phenyl)-1,3,8-triaza-spiro[4.5]dec-1-ene-8-sulfonyl]-ethyl}-phenyl)-acetamide] |
| 65% | Cc1c(CCS(=O)(=O)N2CCC3(CC2)N=C(C2CCC(C)CC2)NC3=O)ccc(N(C)C(N)=O)c1C (stereo not drawn) [Compound 679, 1-(2,3-Dimethyl-4-{2-[2-(4-methyl-cyclohexyl)-4-oxo-1,3,8-triaza-spiro[4.5]dec-1-ene-8-sulfonyl]-ethyl}-phenyl)-1-methyl-urea] |
| 91% | CCCCCCCCCC1=NC2(CCN(S(=O)(=O)CCc3c(C)cc(C(=O)N4CCCCC4)cc3C)CC2)C(=O)N1 [Compound 983, 8-{2-[2,6-dimethyl-4-(piperidine-1-carbonyl)-phenyl]-ethanesulfonyl}-2-nonyl-1,3,8-triaza-spiro[4.5]dec-1-en-4-one] |
| 66% | O=C(CO)Nc1ccc(/C=C/S(=O)(=O)N2CCC3(CC2)N=C(C2CCCCC2)NC3=O)c(C(F)(F)F)c1 [Compound 196, N-{4-[(E)-2-(2-cyclohexyl-4-oxo-1,3,8-triaza-spiro[4.5]dec-1-ene-8-sulfonyl)-vinyl]-3-trifluoromethyl-phenyl}-2-hydroxy-acetamide] |
| 28% | O=C1NC(C2CCCCC2)=NC12CCN(S(=O)(=O)CCC/C=C/c1cccc3[nH]ccc13)CC2 [Compound 252, 2-Cyclohexyl-8-[(E)-5-(1H-indol-4-yl)-pent-4-ene-1-sulfonyl]-1,3,8-triaza-spiro[4.5]dec-1-en-4-one] |
| 112% | Cc1cc(C(=O)N2CC(C)(O)C2)cc(C)c1/C=C/S(=O)(=O)N1CCC2(CC1)N=C(c1ccc(F)c(C(F)(F)F)c1)NC2=O [Compound 970, 2-(4-fluoro-3-trifluoromethyl-phenyl)-8-{(E)-2-[4-(3-hydroxy-3-methyl-azetidine-1-carbonyl)-2,6-dimethyl-phenyl]-ethenesulfonyl}-1,3,8-triaza-spiro[4.5]dec-1-en-4-one] |
| 88% | Cc1cc(C(=O)N2CCC(C)(O)CC2)cc(C)c1/C=C/S(=O)(=O)N1CCC2(CC1)N=C(c1cccc(C(C)(F)F)c1)NC2=O [Compound 1206, 2-[3-(1,1-difluoro-ethyl)-phenyl]-8-{(E)-2-[4-(4-hydroxy-4-methyl-piperidine-1-carbonyl)-2,6-dimethyl-phenyl]-ethenesulfonyl}-1,3,8-triaza-spiro[4.5]dec-1-en-4-one] |
| 19% | CCCS(=O)(=O)CCCCCC1=NC2(CCN(S(=O)(=O)/C=C/c3c(C)cc(N(C)C(N)=O)cc3C)CC2)C(=O)N1 [Compound 1318, 1-[3,5-Dimethyl-4-((E)-2-{4-oxo-2-[5-(propane-1-sulfonyl)-pentyl]-1,3,8-triaza-spiro[4.5]dec-1-ene-8-sulfonyl}-vinyl)-phenyl]-1-methyl-urea] |
| 77% | Cc1cc(CCS(=O)(=O)N2CCC3(CC2)N=C(C2CCC(C)CC2)NC3=O)cc(C)c1N1C(=O)CNC1=O (stereo not drawn) [Compound 749, 3-(2,6-dimethyl-4-{2-[2-(4-methyl-cyclohexyl)-4-oxo-1,3,8-triaza-spiro[4.5]dec-1-ene-8-sulfonyl]-ethyl}-phenyl)-imidazolidine-2,4-dione] |

| Compound | cAMP production activity (%) |
| --- | --- |
| Cc1cc(OCCC(O)CO)cc(C)c1CCS(=O)(=O)N1CCC2(CC1)N=C(c1cccc(OC(F)(F)F)c1)NC2=O (stereo not drawn) [Compound 676, 8-{2-[4-(3,4-dihydroxy-butoxy)-2,6-dimethyl-phenyl]-ethanesulfonyl}-2-(3-trifluoromethoxy-phenyl)-1,3,8-triaza-spiro[4.5]dec-1-en-4-one] | 69% |
